Data on nine molecules can be found in patent publication US8334260B2, “sFRP and peptide motifs that interact with sFRP and methods of their use” (The United States of America as represented by the …, priority 2001, dated 2012).

For test [1], the system named is sFRP-1. Kind of test: Competition ELISA: soluble peptides against peptide/AP chimera binding to sFRP-1. On the set-up: species or system human. The conditions noted are these: for inhibition of A-D9/AP chimera binding to sFRP-1: soluble peptide; for inhibition of A-C2/alkaline phosphatase fusion protein binding to sFRP-1: soluble peptide preincubated 30 min with chimera. On the procedure: (§1) ELISA experiments were generally performed as previously described (Uren et al., J. Biol. Chem. 275:4374-4382, 2000), with modifications depending on the sFRP binding partner to be tested. Typically, wells were coated with 0.5 or 1 μg of sFRP-1, blocked with BSA (0.2%, 1%, or 4%) and then incubated with putative binding partner overnight at room temperature. When investigating the binding of peptide/AP chimeras, after aspiration of bacterial broths, wells were washed and incubated with p-nitrophenolphosphate (pNPP). Color development was determined at 405 nm with an ELISA reader. For competition experiments, soluble peptides were preincubated with peptide/AP chimeras in bacterial broth for 30 min at room temperature prior to transfer into ELISA wells coated with sFRP-1 or BSA. When testing RANKL binding to sFRP-1, serial dilutions of soluble RANKL were assayed in replicate. Following overnight incubation at room temperature, RANKL solutions were aspirated and bound RANKL was detected by sequential incubations with primary antibody to RANKL, secondary antibody coupled with AP and pNPP. Similar experimental designs were employed when other TNFα family members were examined for binding to sFRPs, and when sFRP-1 derivatives or sFRP-2 were the binding targets for RANKL.
Background: In an ELISA, binding on a coated surface is turned into a signal by an enzyme label.

For test [2], the system named is adult mouse spleen cells. As to the kind of experiment: RANKL and M-CSF induced osteoclast formation from adult mouse spleen cells. Format: cell-based. As for the experimental part: (§2) In some instances, experiments were performed either with adult mouse spleen cells or with RAW264.7 cells treated with M-CSF and RANKL as described in Quinn et al., Endocrinology 139:4424-4427, 1998. Where indicated, these assays were conducted in the presence or absence of splenic T cells. T cell fractions were prepared as described in Horwood et al., Journal of Clinical Investigation 101:595-603, 1998.

The subject of test [3] is co-cultures of primary osteoblasts and adult spleen cells. As to the kind of experiment: Osteoclastogenesis co-culture of primary osteoblasts and adult spleen cells (TRAP+ cells). Format: cell-based, mouse. To be noted: for effect on TRAP+ multinucleated cells (osteoclast formation): 5 μg/mL with optimal doses of vitamin D3 (10^-8 M) and PGE2 (10^-7 M). As for the experimental part: Osteoblastic cells were prepared from the calvaria of newborn mice by digestion with 0.1% collagenase (Worthington Biochemical Co., Freefold, […]) and 0.2% dispase (Godo Shusei, Tokyo, Japan). […] Exp. Med. 182: 1461-1468, 1995). Osteoblastic cells were co-cultured with bone marrow or spleen cells as described previously (Udagawa et al., J. Exp. Med. 182: 1461-1468, 1995). In short, primary osteoblastic cells (2×10^4/well) and nucleated spleen cells (1×10^6/well) or marrow cells (5×10^5/well) were co-cultured in 48-well plates (Corning Glass Inc., Corning, N.Y.) with 0.4 mL of α-MEM (GIBCO/BRL, Grand Island, N.Y.) containing 10% fetal bovine serum (Cytosystems, Castle Hill, NSW, Australia) in the presence of test chemicals. Cultures were incubated in quadruplicate and cells were replenished on day 3 with fresh medium. Osteoclast formation was evaluated after culturing for 6-7 days. Adherent cells were fixed and stained for tartrate-resistant acid phosphatase (TRAP), and the number of TRAP-positive osteoclasts was scored as described (Udagawa et al., J. Exp. Med. 182: 1461-1468, 1995). For TRAP staining, adherent cells were fixed with 4% formaldehyde in PBS for 3 minutes. After treatment with ethanol-acetone (50/50, vol/vol) for 1 minute, the well surface was air dried and incubated for 10 minutes at room temperature in an acetate buffer (0.1 M sodium acetate, pH 5.0) containing 0.01% naphthol AS-MX phosphate (Sigma) as a substrate and 0.03% red violet LB salt (Sigma) as a stain for the reaction product in the presence of 50 mM sodium tartrate. TRAP-positive cells appeared dark red, and those with three or more nuclei were scored as multinucleated and considered as osteoclasts. Validation of osteoclast formation was achieved using the specific marker of calcitonin receptor (CTR) expression and bone resorption. CTR expression was determined either by autoradiography with ^125I-salmon calcitonin or by immunohistochemical localization using an array of antibodies we have developed as described by Quinn et al., Bone 25:1-8, 1999.

Test [4] concerns RAW264.7 cells. As to the kind of experiment: RANKL-induced osteoclast formation in RAW264.7 cells. Format: cell-based. To be noted: RANKL 50 ng/mL, T cells added; 5, 1 and 0.5 μg/mL. On the procedure:
as §2
(§3) The effect of bacterially expressed CRD was assessed in three different cell culture models of osteoclast formation. These were: (1) bone marrow cells+RANKL+M-CSF, (2) the macrophage/monocyte cell line RAW264.7+RANKL, and (3) RAW264.7+TNFα+TGFβ (Horwood et al., Journal of Immunology 166:4915-4921, 2001; Quinn et al., Journal of Bone and Mineral Research. 16, 1787-1794, 2001).

Test [5] has as its system sFRP-1. As to the kind of experiment: ELISA of peptide/alkaline phosphatase fusion proteins binding to sFRP-1. Further details: species or system human. The conditions noted are these: bacterial broths, sFRP-1-coated versus BSA-coated wells, pNPP at 405 nm. On the procedure: Synthetic oligonucleotides encoding peptides of interest were ligated into the bacterial alkaline phosphatase fusion vector, pMY101, which had been digested with Sal I and Xho I (Yamabhai and Kay, Anal Biochem. 247:143-151, 1997). All recombinants were confirmed by DNA sequence analysis. Bacteria (E. coli, strain DH5αF′) transformed with the peptide/AP constructs were grown in Luria broth containing ampicillin (50 μg/mL) to an optical density of 0.5 (at 600 nm), treated with 1 mM isopropyl-β-D-thiogalactopyranoside and then incubated overnight at 37° C. Conditioned medium containing peptide/AP chimera was recovered by centrifugation at 7000 g for 15 minutes. Chimeric proteins in conditioned medium were stable when stored for a few weeks at 4° C. or for several months when stored at −80° C.
ELISA experiments were generally performed as previously described (Uren et al., J. Biol. Chem. 275:4374-4382, 2000), with modifications depending on the sFRP binding partner to be tested. Typically, wells were coated with 0.5 or 1 μg of sFRP-1, blocked with BSA (0.2%, 1%, or 4%) and then incubated with putative binding partner overnight at room temperature. When investigating the binding of peptide/AP chimeras, after aspiration of bacterial broths, wells were washed and incubated with p-nitrophenolphosphate (pNPP). Color development was determined at 405 nm with an ELISA reader. […] Following overnight incubation at room temperature, RANKL solutions were aspirated and bound RANKL was detected by sequential incubations with primary antibody to RANKL, secondary antibody coupled with AP and pNPP. […]
A set of peptide-alkaline phosphatase fusion proteins containing the peptide motifs (SEQ ID NOS: 14, 11, and 27) were generated. […] This qualitative difference between A-C2 (SEQ ID NO: 14), A-E4 (SEQ ID NO: 1), and B-B9 (SEQ ID NO: 27) derivatives was consistent with a quantitative difference noted during the ELISA screening of the respective phage. […]

Test [6] concerns RAW264.7 cells. Kind of test: RANKL-independent (TNFα-dependent) osteoclast formation in RAW264.7+TNFα+TGFβ. To be noted: present during the first three days of culture. Format: cell-based. On the procedure:
The effect of sFRP-1 was assessed upon a RANKL-independent method of osteoclast formation using the monocyte/macrophage cell line RAW264.7 (Quinn et al., Journal of Bone and Mineral Research. 16, 1787-1794, 2001) and was compared with that of osteoprotegerin (FIG. 14).
as §3

Test [7] concerns the target T1, RANKL (Homo sapiens, UniProt O14788).
T1 construct: For ELISA assays, recombinant soluble RANKL and TRAIL, and antibodies directed against these proteins were obtained from PeproTech; purchased PeproTech (Rocky Hill, N.J.)
T1 sequence (O14788 140-317): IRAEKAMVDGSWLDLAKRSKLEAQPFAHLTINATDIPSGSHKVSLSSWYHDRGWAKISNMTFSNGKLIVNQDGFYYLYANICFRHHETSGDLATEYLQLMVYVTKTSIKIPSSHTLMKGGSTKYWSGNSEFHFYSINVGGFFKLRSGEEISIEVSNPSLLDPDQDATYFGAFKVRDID
As to the kind of experiment: ELISA of soluble RANKL binding to wells coated with sFRP-1, sFRP-1 derivatives or sFRP-2. The conditions noted are these: ELISA, coated wells versus BSA. As for the experimental part:
as §1
The possibility that sFRP-1 (SEQ ID NO: 3) and RANKL interact directly with each other was tested using an ELISA assay. […] RANKL was then incubated in these wells and in adjacent wells that had only been treated with BSA.

For test [8], the system named is AC2/alkaline phosphatase chimera. Kind of test: ELISA of sFRP-1 deletion mutants binding to AC2/alkaline phosphatase chimera. The conditions noted are these: sFRP-1 deletion mutants coated on ELISA wells. As for the experimental part:
as §1, with “When testing RANKL binding to sFRP-1, serial dilutions of soluble RANKL were assayed in replicate.” left out, “Similar experimental designs were employed when other TNFα family members were examined for binding to sFRPs, and when sFRP-1 derivatives or sFRP-2 were the binding targets for RANKL.” left out
ELISA experiments were performed essentially as described above with a series of sFRP-1 deletion mutants (in Uren et al., J. Biol. Chem., 275: 4374-4382, 2000) to determine what region(s) of the protein were required for binding to the AC2/alkaline phosphatase chimera. […] Little binding was detected with derivatives that contained the CRD alone or the C-terminal region alone.

“Also recorded” adds a separate entry of the source. Where no end group is shown, it is not given here.

Consider “WECAMYDGRCLT (Peptide that binds sFRP) [A-D9]”, for which, in test [1], the “inhibition of A-D9/AP chimera binding to sFRP-1” value was “blocked in a dose-dependent manner” and the “inhibition of A-C2/alkaline phosphatase fusion protein binding to sFRP-1” value is “inhibited binding”.
Regarding QGTLVDGRWLQL [A-C2], in test [2] (T cells removed from adult spleen cells with antibody-coupled magnetic beads), the “effect on osteoclast formation, T cells removed” value is listed as “no additional response”. Further, the “effect on osteoclast production” value in test [2] (peptide present during days 0-3, RANKL 50 ng/mL and M-CSF 25 ng/mL) is recorded as “caused an increase in osteoclast production”. The “effect on TRAP+ multinucleated cells (osteoclast formation)” value in test [3] is given as “ten-fold increase; also recorded: markedly stimulated”. For the same molecule, in test [3] (peptide present for different periods of the culture), the “time window of the effect on osteoclast formation” value was “only had an effect on osteoclast formation when it was present during day 0 to day 3”. Besides, in test [1], the “inhibition of A-D9/AP chimera binding to sFRP-1” value is on record as “could inhibit binding” and the “inhibition of A-C2/alkaline phosphatase fusion protein binding to sFRP-1” value is reported as “dose-dependent inhibition”. For the same molecule, the “stimulation of TRAP+ multinucleated cell differentiation” value in test [4] is given as “dose-dependent stimulation”.
“Alkaline phosphatase: alkaline phosphatase itself, control for the fusion proteins [reference compound]”: in test [5], the “specific binding of peptide/alkaline phosphatase fusion protein to sFRP-1” value was “no preferential binding”.
Same read-out and setting: under “A-C2 (SEQ ID NO: 14)/alkaline phosphatase fusion protein: A-C2 peptide fused to bacterial alkaline phosphatase (QGTLVDGRWLQL; also: fused to bacterial alkaline phosphatase)” stands “strong, highly specific binding”; under “A-D9/AP chimera: A-D9 peptide fused to alkaline phosphatase (WECAMYDGRCLT; cysteine pairing not given here; also: fused to alkaline phosphatase)”, “bound specifically”.

B1: OPG: osteoprotegerin, soluble TNF receptor family factor that binds RANKL (protein, UniProt O00300 22-401, looked up)
Tumor necrosis factor …: ETFPPKYLHYDEETSHQLLCDKCPPGTYLKQHCTAKWKTVCAPCPDHYYTDSWHTSDECLYCSPVCKELQYVKQECNRTHNRVCECKEGRYLEIEFCLKHRSCPPGFGVVQAGTPERNTVCKRCPDGFFSNETSSKAPCRKHTNCSVFGLLLTQKGNATHDNICSGNSESTQKCGIDVTLCEEAFFRFAVPTKFTPNWLSVLVDNLPGTKVNAESVERIKRQHSSQEQTFQLLKLWKHQNKDQDIVKKIIQDIDLCENSVQRHIGHANLTFEQLRSLMESLPGKKVGAEDIEKTIKACKPSDQILKLLSLWRIKNGDQDTLKGLMHALKHSKTYHFPKTVTQSLKKTIRFLHSFTMYKLYQKLFLEMIGNQVQSVKISCL
B1: in test [6], the “effect on TNFα-dependent osteoclast formation” value is on record as “no effect”.

B2: Al derivative: sFRP-1 deletion mutant that consists essentially of the Fz CRD (protein)
chain: MGIGRTEGGRRGAALGVLLALGGASGRGLGSEYDYVSFQSDIGPYQSGRFYTKPPQCVDIPADLRLCHNVGYKKMVLPNLLEHETMAEVKQQASSWVPLLNKNCHAGTQVFLCSLFAPVCLDRPIYPCRWLCEAVRDSCEPVMQFFGFYWPEMLKCDKFPEGDVCIAMTPQAYVEQKLISEEDLNSAVDHHHHHH
modifications: Fusion protein
notes: sFRP-1 deletion mutant that consists essentially of the Fz CRD
Regarding B2, the “binding to RANKL” value in test [7] is reported as “retained good binding”.

B3: Δ3 derivative: sFRP-1 deletion mutant containing all of the Fz CRD and a portion of the C-terminal region (protein)
chain: MGIGRTEGGRRGAALGVLLALGGASGRGLGSEYDYVSFQSDIGPYQSGRFYTKPPQCVDIPADLRLCHNVGYKKMVLPNLLEHETMAEVKQQASSWVPLLNKNCHAGTQVFLCSLFAPVCLDRPIYPCRWLCEAVRDSCEPVMQFFGFYWPEMLKCDKFPEGDVCIAMTPPNATEASKPQGTTVCPPCDNELKSEAIIEHLCASEFALRMKIKEVKKENGDKKIVPKKKKPLKLGPIKKKDLQAYVEQKLISEEDLNSAVDHHHHHH
modifications: Fusion protein
notes: sFRP-1 deletion mutant containing all of the Fz CRD and a portion of the C-terminal region
In the case of B3, the “binding to the AC2/alkaline phosphatase chimera” value in test [8] is on record as “Optimal binding”.

B4: NHD: netrin homology domain of sFRP-1 (protein, listed as Homo sapiens)
chain: CIAMTPPNATEASKPQGTTVCPPCDNELKSEAIIEHLCASEFALRMKIKEVKKENGDKKIVPKKKKPLKLGPIKKKDLKKLVLYLKNGADCPCHQLDNLSHHFLIMGRKVKSQYLLTAIHKWDKKNKEFKNFMKKMKNHEC
Regarding B4, in test [3], the “effect on TRAP+ multinucleated cells (osteoclast formation)” value is “not further enhanced”.
